17 compounds from patent publication US9688699B2, “3-(pyrimidine-2-yl)imidazo[1,2-a]pyridines” (Bayer Pharma Aktiengesellschaft, priority 2014, dated 2017) can be followed below.

In assay [1] the target is T1, human phosphodiesterase 5 (PDE 5) (Homo sapiens, UniProt O76074).
T1 construct: PDE 5 preparations are obtained from human platelets by disruption; from tissue; host or cells: human platelets (Mono Q ion exchange fractions with PDE 5 activity)
Description: Inhibition of human phosphodiesterase 5 (PDE 5) (B-3). The format is biochemical. Conditions: PDE 5 preparation from human platelets; [8-3H] cGMP substrate, SPA; in some cases means of individual determinations. In outline: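 Enzyme partially purified from human platelets by Mono Q ion exchange; [8-3H]cGMP substrate (0.025 μCi), Tris-HCl pH 7.5 with MgCl2/EDTA, <70% conversion, 60 min at room temperature. Compounds tested at 4 to 0.0018 μM final; yttrium SPA bead read-out, IC50 from concentration–% inhibition plot.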

The target in assay [2] is T2, recombinant guanylate cyclase reporter cell line (Rattus norvegicus, UniProt P19686+P20595).
T2 construct: expressed in transfected cells
T2 sequence (P19686 1-690): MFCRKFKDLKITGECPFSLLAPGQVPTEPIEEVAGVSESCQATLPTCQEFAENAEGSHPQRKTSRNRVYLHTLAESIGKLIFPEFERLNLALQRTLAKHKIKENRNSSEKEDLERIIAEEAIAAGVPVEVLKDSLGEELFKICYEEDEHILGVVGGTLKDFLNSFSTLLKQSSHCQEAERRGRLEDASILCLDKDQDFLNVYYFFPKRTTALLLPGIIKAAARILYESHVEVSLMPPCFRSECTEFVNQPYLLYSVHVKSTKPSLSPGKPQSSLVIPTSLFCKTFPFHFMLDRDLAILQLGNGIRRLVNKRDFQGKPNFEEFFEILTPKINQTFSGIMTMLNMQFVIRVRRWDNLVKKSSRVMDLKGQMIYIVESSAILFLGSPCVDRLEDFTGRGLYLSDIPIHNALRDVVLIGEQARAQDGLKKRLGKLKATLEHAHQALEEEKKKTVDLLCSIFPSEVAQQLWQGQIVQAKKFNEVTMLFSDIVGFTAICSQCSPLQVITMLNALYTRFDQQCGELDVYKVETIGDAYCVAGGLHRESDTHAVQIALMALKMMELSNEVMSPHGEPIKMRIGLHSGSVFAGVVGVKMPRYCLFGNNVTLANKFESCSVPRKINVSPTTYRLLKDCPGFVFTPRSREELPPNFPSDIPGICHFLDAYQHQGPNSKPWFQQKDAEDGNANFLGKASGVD
T2 sequence (P20595 1-619): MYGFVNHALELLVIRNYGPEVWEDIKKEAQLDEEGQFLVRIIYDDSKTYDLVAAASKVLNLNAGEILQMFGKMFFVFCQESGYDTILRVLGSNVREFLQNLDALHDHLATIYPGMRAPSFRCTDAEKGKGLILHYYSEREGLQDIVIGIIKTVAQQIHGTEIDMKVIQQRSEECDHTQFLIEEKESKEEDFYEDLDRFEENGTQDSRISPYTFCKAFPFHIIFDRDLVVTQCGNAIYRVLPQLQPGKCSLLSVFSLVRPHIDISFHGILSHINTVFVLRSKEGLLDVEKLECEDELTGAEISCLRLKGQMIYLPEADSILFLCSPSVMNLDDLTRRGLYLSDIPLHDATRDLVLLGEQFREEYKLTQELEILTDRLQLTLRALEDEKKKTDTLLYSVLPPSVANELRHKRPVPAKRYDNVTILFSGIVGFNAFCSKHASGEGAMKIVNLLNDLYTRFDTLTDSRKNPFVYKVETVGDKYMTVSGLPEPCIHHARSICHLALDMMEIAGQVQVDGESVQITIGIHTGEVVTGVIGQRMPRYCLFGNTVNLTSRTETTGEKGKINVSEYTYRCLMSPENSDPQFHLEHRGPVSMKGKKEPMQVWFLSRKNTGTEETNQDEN
Description: Effect on a recombinant guanylate cyclase reporter cell line (B-2). The settings on record: MEC = minimum effective concentration, in some cases mean values for individual determinations. The format is cell-based. In outline:
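Cellular guanylate cyclase activity measured in a recombinant reporter cell line expressing rat soluble guanylate cyclase subunits. Values are minimum effective concentrations (MEC), some as means of individual determinations.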

Counter-ions that a name gives are not always drawn.

With `Cc1nc2c(OCc3c(F)ccc(F)c3F)cccn2c1-c1nc(NCC(C)(C)O)c2c(n1)NC(=O)C2(C)C` [Example 34, 4-[(2-hydroxy-2-methylpropyl)amino]-5,5-dimethyl-2-{2-methyl-8-[(2,3,6-trifluorobenzyl)oxy]imidazo[1,2-a]pyridin-3-yl}-5,7-dihydro-6H-pyrrolo[2,3-d]pyrimidin-6-one], the IC50 (in general, the point on the concentration scale where inhibition reaches its midpoint) in assay [1] was 5.3 nM. In assay [2], the MEC was 1 µM.
The matching figures for `Cc1nc2c(OCc3c(F)cccc3F)cccn2c1-c1nc(Cl)c2c(n1)NC(=O)C2(C)C` [Example 4, 4-Chloro-2-{8-[(2,6-difluorobenzyl)oxy]-2-methylimidazo[1,2-a]pyridin-3-yl}-5,5-dimethyl-5,7-dihydro-6H-pyrrolo[2,3-d]pyrimidin-6-one]: 110 nM and 3 µM.
The matching figures for `Cc1nc2c(OCc3c(F)cccc3F)cccn2c1-c1nc(NC[C@H](O)CO)c2c(n1)NC(=O)C2(C)C` [Example 22, 2-{8-[(2,6-difluorobenzyl)oxy]-2-methylimidazo[1,2-a]pyridin-3-yl}-4-{[(2S)-2,3-dihydroxypropyl]amino}-5,5-dimethyl-5,7-dihydro-6H-pyrrolo[2,3-d]pyrimidin-6-one]: 3.9 nM and 3 µM.
Taken in the same sequence, the figures for `Cc1nc2c(OCc3c(F)cccc3F)cccn2c1-c1nc(NCCO)c2c(n1)NC(=O)C2(C)C` [Example 24, 2-{8-[(2,6-difluorobenzyl)oxy]-2-methylimidazo[1,2-a]pyridin-3-yl}-4-[(2-hydroxyethyl)amino]-5,5-dimethyl-5,7-dihydro-6H-pyrrolo[2,3-d]pyrimidin-6-one trifluoroacetate] were 1.3 nM and 0.3 µM.
`Cc1nc2c(OCc3c(F)cccc3F)cccn2c1-c1nc(NCCC(F)(F)F)c2c(n1)NC(=O)C2(C)C` [Example 19, 2-{8-[(2,6-difluorobenzyl)oxy]-2-methylimidazo[1,2-a]pyridin-3-yl}-5,5-dimethyl-4-[(3,3,3-trifluoropropyl)amino]-5,7-dihydro-6H-pyrrolo[2,3-d]pyrimidin-6-one]: 7.1 nM corresponded to half-maximal inhibition in assay [1] (IC50). The MEC in assay [2] amounted to 1 µM.
The matching figures for `Cc1nc2c(OCc3c(F)cccc3F)cc(Cl)cn2c1-c1nc(N)c2c(n1)NC(=O)C2(C)C` [Example 67, 4-Amino-2-{6-chloro-8-[(2,6-difluorobenzyl)oxy]-2-methylimidazo[1,2-a]pyridin-3-yl}-5,5-dimethyl-5,7-dihydro-6H-pyrrolo[2,3-d]pyrimidin-6-one]: 47 nM and 0.03 µM.
The matching figures for `COCC(C)(N)CNc1nc(-c2c(C)nc3c(OCc4c(F)ccc(F)c4F)cccn23)nc2c1C(C)(C)C(=O)N2` (racemic) [Example 35, rac-4-[(2-amino-3-methoxy-2-methylpropyl)amino]-5,5-dimethyl-2-{2-methyl-8-[(2,3,6-trifluorobenzyl)oxy]imidazo[1,2-a]pyridin-3-yl}-5,7-dihydro-6H-pyrrolo[2,3-d]pyrimidin-6-one formate]: 35 nM and 1 µM.
In assay [1], `Cc1nc2c(OCc3c(F)cccc3F)cccn2c1-c1nc(NCC(N)c2ccc(F)c(F)c2)c2c(n1)NC(=O)C2(C)C` (single isomer, unassigned; ent-4) [Example 14, ent-4-{[2-Amino-2-(3,4-difluorophenyl)ethyl]amino}-2-{8-[(2,6-difluorobenzyl)oxy]-2-methylimidazo[1,2-a]pyridin-3-yl}-5,5-dimethyl-5,7-dihydro-6H-pyrrolo[2,3-d]pyrimidin-6-one] registered a concentration for half-maximal inhibition (IC50) of 91 nM. The MEC in assay [2] turned out to be 3 µM.
The matching figures for `Cc1nc2c(OCc3c(F)cccc3F)cccn2c1-c1nnc2c(n1)NC(=O)C2(C)C` [Example 68, 3-{8-[(2,6-Difluorobenzyl)oxy]-2-methylimidazo[1,2-a]pyridin-3-yl}-7,7-dimethyl-5,7-dihydro-6H-pyrrolo[2,3-e][1,2,4]triazin-6-one]: 260 nM and 1 µM.
The matching figures for `Cc1nc2c(OCc3c(F)cccc3F)cccn2c1-c1nc2c(c(C(N)=O)n1)C(C)(C)C(=O)N2` [Example 50, 2-{8-[(2,6-Difluorobenzyl)oxy]-2-methylimidazo[1,2-a]pyridin-3-yl}-5,5-dimethyl-6-oxo-6,7-dihydro-5H-pyrrolo[2,3-d]pyrimidine-4-carboxamide hydrochloride]: 29 nM and 0.3 µM.
Taken in the same sequence, the figures for `Cc1nc2c(OCc3c(F)cccc3F)cccn2c1-c1nc(CNS(C)(=O)=O)c2c(n1)NC(=O)C2(C)C` [Example 65, N-[(2-{8-[(2,6-Difluorobenzyl)oxy]-2-methylimidazo[1,2-a]pyridin-3-yl}-5,5-dimethyl-6-oxo-6,7-dihydro-5H-pyrrolo[2,3-d]pyrimidin-4-yl)methyl]methanesulphonamide] were 68 nM and 3 µM.
In assay [1], `Cc1nc2c(OCc3c(F)cccc3F)cccn2c1-c1nc(I)c2c(n1)NC(=O)C2(C)C` [Example 2, 2-{8-[(2,6-Difluorobenzyl)oxy]-2-methylimidazo[1,2-a]pyridin-3-yl}-4-iodo-5,5-dimethyl-5,7-dihydro-6H-pyrrolo[2,3-d]pyrimidin-6-one] showed an IC50 of 300 nM. For the same compound, in assay [2], the MEC was 5.3 µM.
Taken in the same sequence, the figures for `Cc1nc2c(OCc3c(F)cccc3F)cccn2c1-c1nc2c(c(NC3CCC(C)(O)CC3)n1)C(C)(C)C(=O)N2` (single isomer, unassigned; diastereomer 1) [Example 28, 2-{8-[(2,6-difluorobenzyl)oxy]-2-methylimidazo[1,2-a]pyridin-3-yl)-4-[(4-hydroxy-4-methylcyclohexyl)amino]-5,5-dimethyl-5,7-dihydro-6H-pyrrolo[2,3-d]pyrimidin-6-one formate (Diastereomer 1)] were 0.3 nM and 0.3 µM.
In assay [1], `Cc1nc2c(OCc3c(F)cccc3F)cccn2c1-c1nc(NC[C@@H](O)CO)c2c(n1)NC(=O)C2(C)C` [Example 23, 2-{8-[(2,6-difluorobenzyl)oxy]-2-methylimidazo[1,2-a]pyridin-3-yl}-4-{[(2R)-2,3-dihydroxypropyl]amino}-5,5-dimethyl-5,7-dihydro-6H-pyrrolo[2,3-d]pyrimidin-6-one] had an IC50 of 8 nM. Further, the MEC in assay [2] came out at 3 µM.
Taken in the same sequence, the figures for `Cc1nc2c(OCc3c(F)cccc3F)cccn2c1-c1nc(NCC(O)C(F)(F)F)c2c(n1)NC(=O)C2(C)C` (racemic) [Example 18, rac-2-{8-[(2,6-difluorobenzyl)oxy]-2-methylimidazo[1,2-a]pyridin-3-yl}-5,5-dimethyl-4-[(3,3,3-trifluoro-2-hydroxypropyl)amino]-5,7-dihydro-6H-pyrrolo[2,3-d]pyrimidin-6-one] were 19 nM and 1 µM.
The matching figures for `Cc1nc2c(OCc3c(F)ccc(F)c3F)cccn2c1-c1nc2c(c(-c3cc[nH]n3)n1)C(C)(C)C(=O)N2` [Example 74, 5,5-Dimethyl-2-{2-methyl-8-[(2,3,6-trifluorobenzyl)oxy]imidazo[1,2-a]pyridin-3-yl}-4-(1H-pyrazol-5-yl)-5,7-dihydro-6H-pyrrolo[2,3-d]pyrimidin-6-one]: 30 nM and 1 µM.
Taken in the same sequence, the figures for `Cc1nc2c(OCc3c(F)cccc3F)cccn2c1-c1nc2c(c(-n3cc(O)cn3)n1)C(C)(C)C(=O)N2` [Example 43, 2-{8-[(2,6-Difluorobenzyl)oxy]-2-methylimidazo[1,2-a]pyridin-3-yl}-4-(4-hydroxy-1H-pyrazol-1-yl)-5,5-dimethyl-5,7-dihydro-6H-pyrrolo[2,3-d]pyrimidin-6-one] were 5.5 nM and 3 µM.
